What all share (test): NCI-60 cell line screen, 48 h
For assay [1], the system named is 786-0 renal.
Assay [2] concerns CAKI-1 renal.
In assay [3] the test system is HCC-2998 colon.
Assay [4] has as its system HL-60(TB) leukemia.
Assay [5] relates to HS 578T breast.
The test system of assay [6] is K-562 leukemia.
Assay [7] concerns KM12 colon.
Assay [8] deals with MCF7 breast.
The test system of assay [9] is MDA-MB-231 breast.
In assay [10] the test system is MOLT-4 leukemia.
In assay [11] the test system is NCI-H460 lung.
In assay [12] the test system is NCI/ADR-RES ovarian.
Assay [13] has as its system OVCAR-8 ovarian.
Assay [14] concerns PC-3 prostate.
The subject of assay [15] is SF-268 CNS.
For assay [16], the system named is SF-295 CNS.
The subject of assay [17] is SN12C renal.
Assay [18] concerns SNB-75 CNS.
Assay [19] concerns NCI-H226 lung.

Each structure is given as a SMILES string.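 The compound was tested at five concentrations on cells cultured in 96-well plates, with a 48-hour exposure period. The concentration for full growth arrest is given as TGI.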 Some results are limits rather than exact numbers.

With `CC(=O)NC1C(OCc2ccccc2)OC(CO)C(O)C1OCC(=O)NC(C(=O)NC(CCC(=O)NCCCCCC(=O)Nc1ccc2c(c1)CN1C(=O)c3ccccc3C1=N2)C(N)=O)C(C)C` (configuration not stated), the TGI is 38 µM in assay [1]; over 100 µM in assay [2]; over 100 µM in [3]; over 100 µM in [4]; 51 µM in [5]; over 100 µM in assay [6]. In addition, the TGI was 48.7 µM in assay [7]; 56.7 µM in [8]; 63.3 µM in assay [9]; over 100 µM in assay [10]; 51.2 µM in [11]; over 100 µM in [12]. Besides, the TGI was 79.5 µM in assay [13]; 70.8 µM in assay [14]; 41.8 µM in [15]; 60.8 µM in assay [16]; over 100 µM in assay [17]; 41.1 µM in assay [18].
As to `Cc1csc2nc(-c3cc([N+](=O)[O-])c(Cl)cc3Cl)c(/C=N/N=C(N)N)n12`, the TGI in assay [1] was 49.3 µM; in assay [2], 29.8 µM; in [3], 22.1 µM; in assay [4] it was 28.9 µM; in [5] it was 32.7 µM; in assay [6], 20.4 µM. For the same molecule, the TGI in assay [7] came out at 32.4 µM; in assay [8], 37.5 µM; in assay [9], 28 µM; in assay [10], 18.8 µM; in [19], 34.6 µM; in assay [11], 45.7 µM. In addition, the TGI in assay [12] is 32 µM; in assay [13], 36.1 µM; in assay [14], 38.9 µM; in assay [15] it was 39.7 µM; in assay [16] it was 38.8 µM; in [17], 29.8 µM.
With `Nc1ncnc2c1ccn2CC#CCO`, the TGI in assay [1], in [2], in assay [3], in assay [4], in [5] and in assay [6] was over 100 µM in each case. Moreover, the TGI in [7], in assay [8], in assay [9], in [10], in [11] and in assay [12] was over 100 µM in each case. The TGI in assay [13], in assay [14], in assay [15], in assay [16], in assay [17] and in assay [18] was over 100 µM each time.
On to `CN1N=C(c2ccncc2)OC1c1cccc(F)c1` (configuration not stated), for which the TGI in assay [1], in [3], in assay [4], in assay [5], in [6] and in assay [7] was over 100 µM throughout. For the same molecule, the TGI in [8], in assay [9], in [10], in assay [19], in [11] and in assay [12] was over 100 µM each time. Further, the TGI in [13], in assay [14], in assay [15], in [16], in assay [17] and in [18] was over 100 µM throughout.
Consider `C/C(=C\[Si](C)(C)c1ccco1)C(C)(O)[C@H](C)O` (some centres not stated), for which the TGI in assay [1], in assay [2], in assay [3], in assay [4], in [5] and in assay [6] was over 100 µM each time. The TGI in assay [7], in [8], in [9], in [10], in assay [19] and in assay [11] was over 100 µM each time. Further, the TGI in assay [12], in [13], in [14], in assay [15], in assay [16] and in assay [17] was over 100 µM each time.
`COC(=O)c1cc(/C=C/C(=O)Cc2ccccc2)cn1S(=O)(=O)c1ccccc1`: the TGI in assay [1], in assay [2], in assay [3], in assay [4], in [5] and in [6] was over 100 µM each time. In addition, the TGI in [7], in [8], in assay [9], in assay [10], in [11] and in assay [12] was over 100 µM in each case. Also, the TGI in assay [13], in assay [14], in assay [15], in assay [16], in assay [17] and in [18] was over 100 µM throughout.
Consider `O=C(c1ccccc1)c1ccc(N2C(=O)/C(=C/c3ccccc3S)N=C2c2ccccc2)c(N2C(=O)/C(=C/c3ccccc3S)N=C2c2ccccc2)c1`, for which the TGI in [1], in assay [2], in [3], in [4], in assay [5] and in assay [6] was over 100 µM in each case. Moreover, the TGI in assay [7] was over 100 µM; in assay [8], over 100 µM; in [9] it was over 100 µM; in assay [10], 56.6 µM; in [11], over 100 µM; in [12] it was over 100 µM. Further, the TGI in assay [13] is 88.6 µM; in [14] it was over 100 µM; in assay [15], over 100 µM; in assay [16], over 100 µM; in assay [17], over 100 µM; in [18], 65.8 µM.
As to `O=C(c1ccccc1)c1ccc(N2C(=O)/C(=C/c3cccc(Oc4ccccc4)c3)N=C2c2ccccc2)c(N2C(=O)/C(=C/c3cccc(Oc4ccccc4)c3)N=C2c2ccccc2)c1`, the TGI is over 100 µM in assay [1]; over 100 µM in [2]; 48.8 µM in assay [3]; 35.9 µM in assay [4]; 88.5 µM in assay [5]; over 100 µM in [6]. Also, the TGI is over 100 µM in assay [7]; 94.3 µM in assay [8]; over 100 µM in assay [9]; over 100 µM in [10]; 80.4 µM in assay [11]; 69.1 µM in assay [12]. Also, the TGI in assay [13], in assay [14], in assay [15], in assay [16], in assay [17] and in [18] was over 100 µM throughout.
As to `N#Cc1c(-c2ccccc2)cn(C(=O)c2ccccc2)c1N`, the TGI in assay [1] is over 100 µM; in assay [3] it was 0.0659 µM; in assay [4], over 100 µM; in assay [5], over 100 µM; in assay [6], over 100 µM; in assay [7], over 100 µM. In addition, the TGI in assay [8], in assay [9], in assay [10], in assay [19], in [12] and in assay [13] was over 100 µM each time. Besides, the TGI in assay [14], in [15], in [16], in [17] and in assay [18] was over 100 µM throughout.
Regarding `C=C1N(C)c2ccc(S(=O)(=O)c3ccc4c(c3)C(C)(C)C(=C)N4C)cc2C1(C)C`, the TGI in assay [1] is over 100 µM; in [2], over 100 µM; in assay [3] it was over 100 µM; in assay [4] it was over 100 µM; in assay [5], 89.2 µM; in assay [7], over 100 µM. Besides, the TGI in assay [8] was over 100 µM; in [9], over 100 µM; in assay [10] it was 91.7 µM; in [19] it was over 100 µM; in assay [11], over 100 µM; in assay [12] it was over 100 µM. Further, the TGI in [13] is over 100 µM; in assay [14], over 100 µM; in assay [15], over 100 µM; in assay [16], over 100 µM; in [17], over 100 µM; in assay [18] it was 62.7 µM.
As to `COC(=O)[C@]12CC[C@H]3CN(S(=O)(=O)c4ccc(C)cc4)[C@H]([C@H]31)[C@H](c1ccco1)N2S(=O)(=O)c1ccc(C)cc1`, the TGI in [1] is over 100 µM; in assay [2], over 100 µM; in assay [3], over 100 µM; in [4], 91.5 µM; in assay [5], over 100 µM; in assay [6], over 100 µM. In addition, the TGI in [7], in assay [8], in [9], in assay [10], in assay [19] and in assay [11] was over 100 µM each time. For the same molecule, the TGI in assay [12], in [13], in assay [14], in assay [15], in assay [16] and in [17] was over 100 µM in each case.

(Values after PubChem BioAssay (NCI).)
